Laboratory results reported in US9636299B2, “Method for treating diabetic retinopathy” (XAVIER UNIVERSITY OF LOUISIANA, priority 2012, dated 2017).
Residues, ends and D or L forms follow the SMILES beside them.

Assays:
heparan sulfate (HS) = experiment: Heparan sulfate shedding in high glucose-treated hRMECs (Western blot); assay type: cell-based, human; conditions: 30 mM glucose 72 hours, 50 or 100 μM apoEdp
Excerpt: Cell Culture. Primary cultures of human retina microvascular endothelial cells (hRMECs) were purchased from the Applied Cell Biology Research Institute and grown on attachment factor-coated plates in cell systems complete (CSC) medium (Cell Systems, Kirkland, Wash.) supplemented with 20% fetal bovine serum, culture boost (animal derived growth factors) and bac-off (antibiotics). The primary hRMECs were used in their passages 4 to 6. The 18-a.a. apoE mimetic peptide apoEdp (SEQ ID NO:3, Ac-LRKLRKRLLLRKLRKRLL-amide), derived from the human apolipoprotein E receptor-binding region (see SED ID NO:1) between residues 141 and 149, was synthesized (Genemed, Arlington, Tex.) with a purity of greater than 95%. The apoEdp peptide was dissolved in phosphate-buffered saline (“PBS”) at a concentration appropriate for further experimental use. […]
Western Blotting. […] The total protein concentration was determined using a BCA protein assay kit (Pierce, Rockford, Ill.). […] To ensure the equal loading of protein in each lane, each membrane was stripped and re-probed with an antibody against β-actin, and the chemiluminescence was detected as described previously. After scanning the blots with a flatbed scanner, band intensities were analyzed using ImageJ (NIH) and the relative intensity values were normalized to control values. […]

occludin [1] = experiment: Streptozotocin-induced diabetic mice, retinal occludin protein by Western blot; assay type: in vivo, mouse; conditions: 14 days
Method: Western Blotting. The hRMECs were harvested in M-PER Mammalian Protein Extraction Reagent (Thermo Fisher Scientific, Inc., Rockford, Ill.) containing protease inhibitor cocktail. The total protein concentration was determined using a BCA protein assay kit (Pierce, Rockford, Ill.). Equal amounts of protein were separated by electrophoresis on 5-20% SDS-polyacrylamide gels and transferred electrophoretically onto nitrocellulose membranes (Amersham, Little Chalfont, UK). […] To ensure the equal loading of protein in each lane, each membrane was stripped and re-probed with an antibody against β-actin, and the chemiluminescence was detected as described previously. After scanning the blots with a flatbed scanner, band intensities were analyzed using ImageJ (NIH) and the relative intensity values were normalized to control values. […]
To investigate the effects on the retinal tight junction protein occludin following topical eye drop (1% apoEdp) or systemic i/p injection (40 mg/kg) of apoEdp, retinas from enucleated mouse eyes were processed to harvest total RNA, and then one-step real-time RT-PCR was performed using mice occludin-specific mRNA expression. […] To correlate the occludin-specific mRNA data at a protein level, total proteins extracted from retinas of different experimental groups (FIG. 10) were analyzed using Western-blot to detect occludin-specific protein expression.

LRP-1 = experiment: Streptozotocin-induced diabetic mice, retinal LRP-1 protein; assay type: in vivo, mouse
Method: Streptozotocin (STZ) induced diabetes. Twelve week old C57Bl/6 mice were used for this study. Mice were induced to have diabetes by intraperitoneal injection of 170 μg/g of streptozotocin (Sigma Aldrich, St. Louis, Mo.). Controls were injected with a vehicle (0.01M sodium citrate buffer). On the third day after STZ treatment, mice tail veins were bled to test the hyperglycemic status using blood sugar detection kit (Lifescan; Johnson & Johnson, Milpitas, Calif.). Mice with blood sugar levels of >300 mg/dL on the third day after STZ treatment were considered diabetic. Eye drop treatment containing 1% apoEdp or vehicle PBS was continued 4 times a day for 14 consecutive days. Intra-peritoneal (i/p) injection containing 40 mg/kg of apoEdp or vehicle control PBS was administered once daily for 14 consecutive days. On the 15th day post-treatment, mice were euthanized, their eyes enucleated, and the retinas dissected out to use for mRNA or Western blot analysis.

occludin [2] = experiment: Streptozotocin-induced diabetic mice, retinal occludin mRNA by real-time RT-PCR; assay type: in vivo, mouse; conditions: 14 days, vs diabetic non-treated
Method: RNA Extraction, Reverse Transcription, & PCR. Following euthanasia, mouse eyes were enucleated and placed immediately into RNAlater® RNA stabilization reagent (Qiagen, Hilden, Germany). Intraocular fluids were aspirated and pooled, and total cellular RNA was isolated using an RNeasy® Mini Kit (Qiagen) according to the manufacturer's instructions. Gene expression was measured at RNA level per 100 ng of total RNA using one-step RT-PCR kit (Bio-Rad, Hercules, Calif.). Four host genes (mouse GAPDH, mouse MMP2, mouse HPSE-1 (heparanase-1), and mouse MMP9) were analyzed to confirm relative quantitative expression levels. The primer pairs used were specifically designed and synthesized by Qiagen GmbH, Hilden, Germany (Quantitech Primer assay kit, for each host gene, catalog numbers QT01658692, QT00088396, QT00009555, and QT00040040, respectively). One-step Real-time quantitative RT-PCR reactions were performed in a 50-μL volume containing a solution of 1× supermix (iQ SYBR Green; Bio-Rad, Hercules, Calif.), 1 μM mix of forward and reverse primers, and 5 μL total RNA. A four-step protocol was used: denaturation, 3 minutes at 95° C.; amplification and quantification, 40 cycles of 15 seconds at 95° C. followed by 30 seconds at 60° C.; melting curve, 60 to 95° C. with a heating rate of 0.5° C. per second; followed by cooling (MyiQ Single Color Real-Time PCR Detection System; Bio-Rad). […]

[3] = 1% apoEdp eye drop 4 times a day

SMILES: CC(=O)N[C@@H](CC(C)C)C(=O)N[C@@H](CCCNC(=N)N)C(=O)N[C@@H](CCCCN)C(=O)N[C@@H](CC(C)C)C(=O)N[C@@H](CCCNC(=N)N)C(=O)N[C@@H](CCCCN)C(=O)N[C@@H](CCCNC(=N)N)C(=O)N[C@@H](CC(C)C)C(=O)N[C@@H](CC(C)C)C(=O)N[C@@H](CC(C)C)C(=O)N[C@@H](CCCNC(=N)N)C(=O)N[C@@H](CCCCN)C(=O)N[C@@H](CC(C)C)C(=O)N[C@@H](CCCNC(=N)N)C(=O)N[C@@H](CCCCN)C(=O)N[C@@H](CCCNC(=N)N)C(=O)N[C@@H](CC(C)C)C(=O)N[C@@H](CC(C)C)C(N)=O [apoEdp, Ac-LRKLRKRLLLRKLRKRLL-amide] (Ac-LRKLRKRLLLRKLRKRLL-NH2)
- High glucose-induced shedding of HS (heparan sulfate (HS)): reduced the shedding
- Loss of occludin protein in retina (occludin [1]; [3]): significantly attenuated the loss
- Loss of occludin protein in retina (occludin [1]; i/p injection 40 mg/kg daily): significantly attenuated the loss
- Retinal LRP-1 protein levels (LRP-1; 1% apoEdp via eye drops): significant reduction
- Retinal LRP-1 protein levels (LRP-1; 1% apoEdp via intraperitoneal (i/p) injection): significant reduction
- Down-regulation of occludin-specific mRNA in retina (occludin [2]; [3]): significantly inhibited the down-regulation
- Down-regulation of occludin-specific mRNA in retina (occludin [2]; i/p injection 40 mg/kg daily): significantly inhibited the down-regulation
